Laboratory results from ChEMBL document CHEMBL3045453, “Novel malyngamide structural analogs: synthesis and biological evaluation” (Med Chem Res, 2013).

How the values were obtained:
Assay type in all cases: functional, cell-based
[1] = test system: HOP-62; assay: Cytotoxicity against Homo sapiens (human) HOP62 cells assessed as growth inhibition after 48 hr by trypan blue exclusion assay; conditions: HOP-62, 48 h
[2] = test system: SW-620; assay: Cytotoxicity against Homo sapiens (human) SW620 cells assessed as growth inhibition after 48 hr by trypan blue exclusion assay; conditions: SW-620, 48 h
[3] = Cytotoxicity against Homo sapiens (human) 502713 cells assessed as growth inhibition after 48 hr by trypan blue exclusion assay; conditions: Homo sapiens, 502713, 48 h
[4] = test system: SK-N-SH; assay: Cytotoxicity against Homo sapiens (human) SK-N-SH cells assessed as growth inhibition after 48 hr by trypan blue exclusion assay
[5] = test system: HeLa; assay: Cytotoxicity against Homo sapiens (human) HeLa cells assessed as growth inhibition after 48 hr by trypan blue exclusion assay
[6] = test system: PC-3; assay: Cytotoxicity against Homo sapiens (human) PC3 cells assessed as growth inhibition after 48 hr by trypan blue exclusion assay; conditions: PC-3, 48 h
[7] = test system: IMR-32; assay: Cytotoxicity against Homo sapiens (human) IMR32 cells assessed as growth inhibition after 48 hr by trypan blue exclusion assay; conditions: IMR-32, 48 h
[8] = test system: SF-295; assay: Cytotoxicity against Homo sapiens (human) SF295 cells assessed as growth inhibition after 48 hr by trypan blue exclusion assay; conditions: SF-295, 48 h

| SMILES | IC50 [1] | IC50 [2] | IC50 [3] | IC50 [4] | IC50 [5] | IC50 [6] | IC50 [7] | IC50 [8] |
| --- | --- | --- | --- | --- | --- | --- | --- | --- |
| CCCCCCC[C@H](O)C/C=C/CCC(=O)NCCc1ccccc1 | > 100 µM | > 100 µM | > 100 µM | 164 µM | > 100 µM | > 100 µM | > 100 µM | > 100 µM |
| CCCCCCC[C@H](O)C/C=C/CCC(=O)N1CCCC1 | > 100 µM | > 100 µM | > 100 µM | 120 µM | > 100 µM | > 100 µM | > 100 µM | > 100 µM |
| CCCCCCC[C@H](O)C/C=C/CCC(=O)N1CCCCC1 | > 100 µM | > 100 µM | > 100 µM | 100 µM | > 100 µM | > 100 µM | > 100 µM | > 100 µM |
| CCCCCCC[C@H](O)C/C=C/CCC(=O)NCC(C)C | > 100 µM | > 100 µM | > 100 µM | > 100 µM | > 100 µM | > 100 µM | > 100 µM | > 100 µM |
| CCCCCCC[C@H](C/C=C/CCC(=O)N1CCCC1)OC | > 100 µM | > 100 µM | > 100 µM | > 100 µM | > 100 µM | > 100 µM | > 100 µM | > 100 µM |
| CCCCCCC[C@H](C/C=C/CCC(=O)N1CCCCC1)OC | > 100 µM | > 100 µM | > 100 µM | 118 µM | > 100 µM | > 100 µM | > 100 µM | > 100 µM |
| CCCCCCC[C@H](C/C=C/CCC(=O)NCC(C)C)OC | > 100 µM | > 100 µM | > 100 µM | > 100 µM | > 100 µM | > 100 µM | > 100 µM | > 100 µM |
| CCCCCCC[C@@H](C/C=C/CCC(=O)Nc1ccc(Br)cc1)OC | 174 µM | > 100 µM | > 100 µM | 65.7 µM | > 100 µM | > 100 µM | > 100 µM | > 100 µM |
| CCCCCCC[C@@H](C/C=C/CCC(=O)NCc1ccc(C(F)(F)F)cc1)OC | > 100 µM | > 100 µM | 29.8 µM | 62.9 µM | > 100 µM | > 100 µM | > 100 µM | > 100 µM |
| CCCCCCC[C@@H](C/C=C/CCC(=O)Nc1c(OC)cc(Cl)cc1OC)OC | > 100 µM | > 100 µM | 64.1 µM | > 100 µM | > 100 µM | > 100 µM | > 100 µM | > 100 µM |
| CCCCCCC[C@@H](C/C=C/CCC(=O)NCc1ccc(OC)cc1)OC | > 100 µM | > 100 µM | > 100 µM | > 100 µM | > 100 µM | > 100 µM | > 100 µM | > 100 µM |
| CCCCCCC[C@@H](C/C=C/CCC(=O)Nc1ccc(Cl)cc1)OC | > 100 µM | > 100 µM | > 100 µM | 72.9 µM | > 100 µM | > 100 µM | > 100 µM | > 100 µM |
| CCCCCCC[C@@H](C/C=C/CCC(=O)NCc1ccc(F)cc1)OC | > 100 µM | > 100 µM | > 100 µM | > 100 µM | > 100 µM | > 100 µM | > 100 µM | > 100 µM |
| CCCCCCC[C@@H](C/C=C/CCC(=O)NCc1ccccc1)OC | > 100 µM | > 100 µM | > 100 µM | > 100 µM | > 100 µM | > 100 µM | > 100 µM | > 100 µM |
| CCCCCCC[C@@H](C/C=C/CCC(=O)N1CCCC1)OC | > 100 µM | > 100 µM | > 100 µM | > 100 µM | > 100 µM | > 100 µM | > 100 µM | > 100 µM |
| CCCCCCC[C@@H](C/C=C/CCC(=O)N1CCCCC1)OC | > 100 µM | > 100 µM | > 100 µM | > 100 µM | > 100 µM | > 100 µM | > 100 µM | > 100 µM |
| CCCCCCC[C@@H](C/C=C/CCC(=O)NCC(C)C)OC | > 100 µM | > 100 µM | > 100 µM | > 100 µM | > 100 µM | > 100 µM | > 100 µM | > 100 µM |
| CCCCCCC[C@@H](C/C=C/CCC(=O)NCCc1ccccc1)OC [HERMITAMIDE A] | > 100 µM | > 100 µM | > 100 µM | > 100 µM | > 100 µM | > 100 µM | > 100 µM | > 100 µM |
| CCCCCCC[C@H](C/C=C/CCC(=O)NCCc1ccccc1)OC [PHENETHYL(7R,4E)-METHOXYTETRADECENAMIDE] | > 100 µM | > 100 µM | > 100 µM | 95.8 µM | > 100 µM | > 100 µM | > 100 µM | > 100 µM |
